The values that follow come from US20100331338A1, “Glucokinase Activators” (Merck Patent GMBH, priority 2008, published 2010).

SMILES strings stand for the structures.

The target in the experiment is T1, hGK (Homo sapiens, UniProt P35557).
T1 sequence (P35557 1-465): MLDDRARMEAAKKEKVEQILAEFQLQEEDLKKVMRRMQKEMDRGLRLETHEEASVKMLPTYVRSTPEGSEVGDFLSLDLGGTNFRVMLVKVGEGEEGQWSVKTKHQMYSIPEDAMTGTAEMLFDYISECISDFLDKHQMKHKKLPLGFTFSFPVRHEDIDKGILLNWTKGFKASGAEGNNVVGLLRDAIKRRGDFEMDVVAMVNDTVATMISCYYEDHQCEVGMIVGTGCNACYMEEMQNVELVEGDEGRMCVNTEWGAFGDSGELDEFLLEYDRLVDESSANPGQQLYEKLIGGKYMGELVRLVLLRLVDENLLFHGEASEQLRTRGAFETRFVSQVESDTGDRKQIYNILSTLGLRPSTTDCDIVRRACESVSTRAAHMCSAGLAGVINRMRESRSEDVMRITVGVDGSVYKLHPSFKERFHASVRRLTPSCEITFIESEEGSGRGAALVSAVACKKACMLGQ
The experiment is described as follows: Glucokinase Activation Screening Assay (coupled enzyme assay with PK/LDH). The format is biochemical. The conditions noted are these: fold activation at 30 μM compound, 2 mM glucose. Here is the method:
Glucokinase Activation Screening Assay
GK activity (human or rat enzyme) is measured by a coupled enzyme assay using pyruvate kinase (PK) and lactate dehydrogenase (LDH) as coupling enzymes. GK activity is calculated from the decline in NADH monitored photometrically with a microtiter plate (MTP) reader at 340 nm.
For screening purposes, the GK assay is routinely run in a 384-MTP format, in a total volume of 33 μl/well. 10 μl of the ATP-regeneration solution (in HEPES-buffer*, pH 7.0, 6.73 U/ml pyruvate kinase, 6.8 U/ml lactate dehydrogenase) and 10 μl of the glucokinase-/glucose solution (15 μg/ml, 6.6 mM glucose in HEPES-buffer*, pH 7.0; the concentration of the glucose stock-solution was 660 mM in Millipore H2O) were mixed together with […] of a 10% DMSO solution (in HEPES-buffer*, pH 7.0) containing 3.3-fold the amounts of the compounds to achieve final compound concentrations in the range between 1 nM to 30 μM (sometimes 300 μM) in the assay solution (s. below). The solutions were mixed for 5 sec, and after a centrifugation at 243×g for 5 min, the solutions were preincubated for 25 min at room temperature.
The reaction was started by the addition of 10 μl of the NADH-/ATP-solution (4.29 mM NADH, 4.95 mM ATP, in HEPES-buffer*). The MTP was shaken for 5 sec., and then, the absorbance at 340 nm was monitored continuously in a MTP-reader (TECAN Spectro fluor plus) for the next 27 min (with a MTP-cycling time of 199 sec.). The final concentrations of the various components were as follows: 49.5 mM Hepes, pH 7.0, 1.49 mM PEP,1,3 mM NADH, 49.5 mM KCl, 4.96 mM MgCl2, 1.5 mM Mg-ATP, 1.98 mM DTT, 2.04 U/ml pyruvate kinase, 2.06 U/ml lactate-dehydrogenase, 0.91% DMSO, 0.15 μg/well glucokinase, and test compounds in the range between 1 nM and 300 μM.
The change in the optical density (ΔOD340 nm) in the presence of the compound was expressed relative to the ΔOD340 nm, ctrl of the control incubation (in the presence of 2 mM glucose and 0.91% DMSO), taking into account the optical density of the blank sample (incubation in the absence of 2 mM glucose). For the determination of the half maximal effective concentration (EC50), the %-Ctrl-values were plotted in a semi-logarithmic graph against the conc. of the compound of interest. The data points were fitted to a sigmoid curve function (f(x)=((%-Ctrlmax%-Ctrlmin)/(1−(EC50/x**^n(Hill)))+%-Ctrlmin)) by a non-linear regression analysis.
* Hepes-buffer (50 mM Hepes, pH 7.0, 5 mM MgCl2, 50 mM KCl, 1.5 mM PEP, 0.1% BSA). DTT was added to the Hepes-buffer from a 200× stock solution (in Millipore H2O) freshly each day. The final concentration of DTT in the Hepes-buffer is 2 mM.
Turning to `CCCc1cc(C(=O)Nc2nc(CC(=O)O)cs2)cs1` [Example 46, {2-[(5-Propyl-thiophene-3-carbonyl)-amino]-thiazol-4-yl}-acetic acid], the “hGK fold activation at 30 μM” value came out at 2.1. As to `Cc1ccc(C(=O)Nc2nccs2)s1` [Example 26, 5-Methyl-thiophene-2-carboxylic acid thiazol-2-ylamide], the “hGK fold activation at 30 μM” value came to 1.5. `O=C(Nc1nccs1)c1cc(-c2ccc(Cl)cc2)cs1` [Example 19, 4-(4-Chloro-phenyl)-thiophene-2-carboxylic acid thiazol-2-ylamide]: the “hGK fold activation at 30 μM” value is 1.5. Regarding `CCCc1cc(C(=O)Nc2ccn(Cc3ccccn3)n2)cs1` [Example 37, 5-Propyl-thiophene-3-carboxylic acid(1-pyridin-2-ylmethyl-1H-pyrazol-3-yl)-amide], the “hGK fold activation at 30 μM” value came to 3.6. Turning to `CS(=O)(=O)c1csc(C(=O)Nc2nccs2)c1Cl` [Example 18, 3-Chloro-4-methanesulfonyl-thiophene-2-carboxylic acid thiazol-2-ylamide], the “hGK fold activation at 30 μM” value is recorded as 1.2. With `COCc1csc(C(=O)Nc2cc(C)n(Cc3ccccn3)n2)c1` [Example 17, 4-Methoxymethyl-thiophene-2-carboxylic acid(5-methyl-1-pyridin-2-ylmethyl-1H-pyrazol-3-yl)-amide], the “hGK fold activation at 30 μM” value amounted to 1.8. For `CCCc1sc(C(=O)Nc2nccs2)cc1CC` [Example 33, 4-Ethyl-5-propyl-thiophene-2-carboxylic acid thiazol-2-ylamide] the value was 9.4; for `CC1CCc2c(C(=O)Nc3nccs3)csc2C1` (stereo not drawn) [Example 8, 6-Methyl-4,5,6,7-tetrahydro-benzo[b]thiophene-3-carboxylic acid thiazol-2-ylamide], 1.6.

For `CCCc1cc(C(=O)Nc2ccccn2)cs1` [Example 41, 5-Propyl-thiophene-3-carboxylic acid pyridin-2-ylamide], the “hGK fold activation at 30 μM” value was found to be 2.5.
